Columns and labels:
[1] = target: anti-cotinine antibody (SEQ ID NO: 11/12, rabbit variable region with human IgG1 Fc DE mutation); assay: SPR binding of anti-cotinine antibody to ARM compounds, Biacore T200, 37° C. (Example 202); settings: SPR Biacore T200, 37° C., pH 7.4, antibody SEQ ID NO: 11/12 captured on protein A; Kd in molar
Description: Anti-cotinine antibodies having a heavy chain sequence of SEQ ID NO: 11 and a light chain sequence of SEQ ID NO: 12 (rabbit variable region with human IgG1 Fc domain containing a DE mutation (S239D/1332E)) were captured on one or more flow cells of a protein A sensor chip (Cytiva) using a Biacore T200 while reserving flow cell 1 as a reference. Following capture, a 3000 second wait step was included to reduce drift during compound analysis. ARM compounds of Formula (I) were then injected at 100 μL/min with 200 and 2000 second association and dissociation times. The entire experiment was run at 37° C. with running buffer containing 10 mM HEPES pH 7.4, 150 mM NaCl, 0.005% P20 and 1% DMSO. ARM compounds of Formula (I) were titrated with a top concentration of 200 nM using a 3-fold 5-point dilution series and a corresponding 5-injection buffer cycle was run for blank subtraction. Data were double referenced by subtracting the response of the reference flow cell from that of the antibody-containing flow cell and subsequently subtracting the referenced blank sensorgrams. Following compound analysis, the surface was regenerated using a 30 second injection of pH 1.5 glycine at a flow rate of 30 μL/min after which antibody was re-captured. The experiment was run using Biacore T200 control software and evaluated using Biacore T200 Evaluation software. Curves were fit with a 1:1 kinetic binding model to obtain kon (1/Ms), koff(1/s), Kd (M) determined as koff/kon, and residence time determined as 1/koff (s).
Anti-cotinine antibody was tested for binding to ARMs compounds of Formula (I) of the invention in the above assay in or more experimental runs and the results are shown in Table 5 below. Affinity is reported as a pKd value. The pKd value is the negative log of the Kd value, wherein the Kd value is the dissociation constant measured in molar (M) as noted above. For compounds tested in more than one experimental run, the pKd value is reported as an average

[2] = system: endogenous target monocytes in human PBMC; assay: PBMC ex vivo monocyte depletion flow cytometry assay (Example 200); assay type: cell-based; settings: with anti-cotinine antibody (SEQ ID NO: 11/12), 18-24 hours, EC50 in molar, read-out: Ex Vivo Depletion Assay pEC50 (converted)
How it was run: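 Monocyte depletion is reported as pEC50, averaged or given individually across runs, and read by flow cytometry staining CD45, CD14 and CD4 with a viability dye. Compounds, diluted four-fold over 11 points from 1 mM DMSO stocks, were combined with 30 μg/mL Fc-enhanced anti-cotinine antibody and human PBMC, then incubated 18-24 h at 37° C.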

[3] = target: human alpha1 nicotinic acetylcholine (nACh) receptor (Homo sapiens, UniProt P02708); assay: Nicotinic acetylcholine receptor antagonism assay, IONFlux automated patch clamp (Example 203); assay type: cell-based; settings: for IC50: antagonism of ACh-stimulated human alpha1 nAChR current, patch clamp; for Emax at 10 µM: maximum percentage antagonism at maximum concentration tested 10 μM, read-out: Maximum Response
How it was run: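 Cells expressing human α1 nAChR were incubated with a compound dose response (top 10 μM or 100 μM), then stimulated with ACh (10 mM), and peak current was read by automated patch clamp. % inhibition was taken against ACh-alone control, corrected for vehicle and run-down, and fit non-linearly for IC50; runs were averaged.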

Sequence of human alpha1 nicotinic acetylcholine (nACh) receptor (P02708 21-457): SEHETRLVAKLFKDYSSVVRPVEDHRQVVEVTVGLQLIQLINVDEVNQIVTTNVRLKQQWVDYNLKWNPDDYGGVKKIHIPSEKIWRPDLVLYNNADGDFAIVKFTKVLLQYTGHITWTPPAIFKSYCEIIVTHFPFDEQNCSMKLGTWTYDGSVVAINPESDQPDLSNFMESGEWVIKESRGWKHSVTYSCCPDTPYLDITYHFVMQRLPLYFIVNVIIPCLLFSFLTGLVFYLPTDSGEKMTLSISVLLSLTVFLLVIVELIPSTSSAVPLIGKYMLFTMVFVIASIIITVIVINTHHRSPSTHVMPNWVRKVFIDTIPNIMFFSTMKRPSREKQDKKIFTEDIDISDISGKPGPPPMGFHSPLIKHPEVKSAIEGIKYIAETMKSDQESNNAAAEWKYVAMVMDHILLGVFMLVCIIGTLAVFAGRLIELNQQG
Sequence of human alpha1 nicotinic acetylcholine (nACh) receptor (P11230 24-501 partner): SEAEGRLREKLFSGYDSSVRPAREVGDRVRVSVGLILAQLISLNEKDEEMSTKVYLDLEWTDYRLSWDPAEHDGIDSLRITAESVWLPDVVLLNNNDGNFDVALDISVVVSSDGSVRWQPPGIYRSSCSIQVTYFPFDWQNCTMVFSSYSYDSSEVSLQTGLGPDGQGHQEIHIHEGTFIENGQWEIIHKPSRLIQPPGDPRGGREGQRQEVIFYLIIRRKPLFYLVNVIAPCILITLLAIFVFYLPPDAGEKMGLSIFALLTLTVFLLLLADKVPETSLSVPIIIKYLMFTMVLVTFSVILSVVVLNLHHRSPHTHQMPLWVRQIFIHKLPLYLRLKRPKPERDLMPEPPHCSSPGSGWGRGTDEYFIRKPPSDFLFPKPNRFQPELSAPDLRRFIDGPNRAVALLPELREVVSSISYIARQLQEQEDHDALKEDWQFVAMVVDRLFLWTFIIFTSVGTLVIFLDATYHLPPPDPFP
Sequence of human alpha1 nicotinic acetylcholine (nACh) receptor (Q07001 22-517 partner): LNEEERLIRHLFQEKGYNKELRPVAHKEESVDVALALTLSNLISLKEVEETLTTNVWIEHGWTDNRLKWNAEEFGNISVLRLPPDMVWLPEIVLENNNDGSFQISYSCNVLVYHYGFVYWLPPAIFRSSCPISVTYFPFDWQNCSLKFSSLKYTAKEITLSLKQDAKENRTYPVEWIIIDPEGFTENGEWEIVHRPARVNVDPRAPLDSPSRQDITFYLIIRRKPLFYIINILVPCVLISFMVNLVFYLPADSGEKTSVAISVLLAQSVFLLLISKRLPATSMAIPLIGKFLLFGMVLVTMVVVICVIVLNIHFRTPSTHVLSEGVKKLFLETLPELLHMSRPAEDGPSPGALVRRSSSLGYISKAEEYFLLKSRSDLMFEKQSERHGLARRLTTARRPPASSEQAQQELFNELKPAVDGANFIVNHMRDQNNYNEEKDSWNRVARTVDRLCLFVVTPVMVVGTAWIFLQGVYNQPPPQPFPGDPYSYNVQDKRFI

| SMILES | pKd of Antibody for ARM Compound of Formula (I) [1] | EC50 [2] [nM] | IC50 [3] [nM] | Emax at 10 µM [3] [%] |
| --- | --- | --- | --- | --- |
| CC(C)N(C)[C@@H]1CC[C@H](N2CC[C@H](Nc3ncnc4ccc(C(F)(F)F)cc34)C2=O)[C@H](NC(=O)[C@H]2CC[C@@H](C3CCN(C(=O)CCOCCOCCNC(=O)[C@H]4CC(=O)N(C)[C@@H]4c4cccnc4)CC3)CC2)C1 [Example 72, (2S,3S)-N-(2-(2-(3-(4-((1S,4s)-4-(((1R,2S,5R)-5-(isopropyl(methyl)amino)-2-((S)-2-oxo-3-((6-(trifluoromethyl)quinazolin-4-yl)amino)pyrrolidin-1-yl)cyclohexyl)carbamoyl)cyclohexyl)piperidin-1-yl)-3-oxopropoxy)ethoxy)ethyl)-1-methyl-5-oxo-2-(pyridin-3-yl)pyrrolidine-3-carboxamide] | 9.8865 | 7.94 | ≥ 10000 | 32.7 |
| CC(C)N(C)[C@@H]1CC[C@H](N2CC[C@H](Nc3ncnc4ccc(C(F)(F)F)cc34)C2=O)[C@H](NC(=O)[C@H]2CC[C@H](C3CCN(C(=O)CCOCCOCCNC(=O)[C@H]4CC(=O)N(C)[C@@H]4c4cccnc4)CC3)CC2)C1 [Example 73, (2S,3S)-N-(2-(2-(3-(4-((1R,4r)-4-(((1R,2S,5R)-5-(Isopropyl(methyl)amino)-2-((S)-2-oxo-3-((6-(trifluoromethyl)quinazolin-4-yl)amino)pyrrolidin-1-yl)cyclohexyl)carbamoyl)cyclohexyl)piperidin-1-yl)-3-oxopropoxy)ethoxy)ethyl)-1-methyl-5-oxo-2-(pyridin-3-yl)pyrrolidine-3-carboxamide] | 9.8185 | 100000 | ≥ 10000 | 4.1 |
| CC(C)N(C)[C@@H]1CC[C@H](N2CC[C@H](Nc3ncnc4ccc(C(F)(F)F)cc34)C2=O)[C@H](NC(=O)COCCOCCNC(=O)CCOCCOCCNC(=O)[C@H]2CC(=O)N(C)[C@@H]2c2cccnc2)C1 [Example 77, (2S,3S)-N-(1-(((1R,2S,5R)-5-(Isopropyl(methyl)amino)-2-((S)-2-oxo-3-((6-(trifluoromethyl)quinazolin-4-yl)amino)pyrrolidin-1-yl)cyclohexyl)amino)-1,10-dioxo-3,6,13,16-tetraoxa-9-azaoctadecan-18-yl)-1-methyl-5-oxo-2-(pyridin-3-yl)pyrrolidine-3-carboxamide] | 9.152 | 6.31 | ≥ 10000 | 19.6 |
| CC(C)N(C)[C@@H]1CC[C@H](N2CC[C@H](Nc3ncnc4ccc(C(F)(F)F)cc34)C2=O)[C@H](NC(=O)COCCNC(=O)COCCOCCNC(=O)CCNC(=O)[C@H]2CC(=O)N(C)[C@@H]2c2cccnc2)C1 [Example 143, (2S,3S)-N-(1-(((1R,2S,5R)-5-(Isopropyl(methyl)amino)-2-((S)-2-oxo-3-((6-(trifluoromethyl)quinazolin-4-yl)amino)pyrrolidin-1-yl)cyclohexyl)amino)-1,7,16-trioxo-3,9,12-trioxa-6,15-diazaoctadecan-18-yl)-1-methyl-5-oxo-2-(pyridin-3-yl)pyrrolidine-3-carboxamide] | 9.275 | 2.51 |  |  |
| CC(C)N(C)[C@@H]1CC[C@H](N2CC[C@H](Nc3ncnc4ccc(C(F)(F)F)cc34)C2=O)[C@H](NC(=O)COCCNC(=O)COCCNC(=O)CCOCCNC(=O)[C@H]2CC(=O)N(C)[C@@H]2c2cccnc2)C1 [Example 151, (2S,3S)-N-(1-(((1R,2S,5R)-5-(Isopropyl(methyl)amino)-2-((S)-2-oxo-3-((6-(trifluoromethyl)quinazolin-4-yl)amino)pyrrolidin-1-yl)cyclohexyl)amino)-1,7,13-trioxo-3,9,16-trioxa-6,12-diazaoctadecan-18-yl)-1-methyl-5-oxo-2-(pyridin-3-yl)pyrrolidine-3-carboxamide] | 9.0755 | 2 |  |  |
| CC(C)N(C)[C@@H]1CC[C@H](N2CC[C@H](Nc3ncnc4ccc(C(F)(F)F)cc34)C2=O)[C@H](NC(=O)CCOCCOCCOCCNc2c(NCCNC(=O)[C@H]3CC(=O)N(C)[C@@H]3c3cccnc3)c(=O)c2=O)C1 [Example 168, (2S,3S)-N-(2-((2-((2-(2-(2-(3-(((1R,2S,5R)-5-(Isopropyl(methyl)amino)-2-((S)-2-oxo-3-((6-(trifluoromethyl)quinazolin-4-yl)amino)pyrrolidin-1-yl)cyclohexyl)amino)-3-oxopropoxy)ethoxy)ethoxy)ethyl)amino)-3,4-dioxocyclobut-1-en-1-yl)amino)ethyl)-1-methyl-5-oxo-2-(pyridin-3-yl)pyrrolidine-3-carboxamide] | 9.06 | 1 |  |  |
| CC(C)N(C)[C@@H]1CC[C@H](N2CC[C@H](Nc3ncnc4ccc(C(F)(F)F)cc34)C2=O)[C@H](NC(=O)[C@H]2CC[C@@H](NC(=O)CCOCCNC(=O)COCCCNC(=O)[C@H]3CC(=O)N(C)[C@@H]3c3cccnc3)CC2)C1 [Example 175, (2S,3S)-N-(3-(2-((2-(3-(((1S,4s)-4-(((1R,2S,5R)-5-(Isopropyl(methyl)amino)-2-((S)-2-oxo-3-((6-(trifluoromethyl)quinazolin-4-yl)amino)pyrrolidin-1-yl)cyclohexyl)carbamoyl)cyclohexyl)amino)-3-oxopropoxy)ethyl)amino)-2-oxoethoxy)propyl)-1-methyl-5-oxo-2-(pyridin-3-yl)pyrrolidine-3-carboxamide] | 9.244 | 0.631 |  |  |
| CC(C)N(C)[C@@H]1CC[C@H](N2CC[C@H](Nc3ncnc4ccc(C(F)(F)F)cc34)C2=O)[C@H](NC(=O)CCCC(=O)N[C@H]2CC[C@H](CNC(=O)CCOCCNC(=O)[C@H]3CC(=O)N(C)[C@@H]3c3cccnc3)CC2)C1 [Example 180, N^1-((1R,2S,5R)-5-(isopropyl(methyl)amino)-2-((S)-2-oxo-3-((6-(trifluoromethyl)quinazolin-4-yl)amino)pyrrolidin-1-yl)cyclohexyl)-N^5-((1S,4R)-4-((3-(2-((2S,3S)-1-methyl-5-oxo-2-(pyridin-3-yl)pyrrolidine-3-carboxamido)ethoxy)propanamido)methyl)cyclohexyl)glutaramide] | 9.249 | 1.26 |  |  |
| CC(C)N(C)[C@@H]1CC[C@H](N2CC[C@H](Nc3ncnc4ccc(C(F)(F)F)cc34)C2=O)[C@H](NC(=O)COCCNC(=O)CCNC(=O)CCOCCOCCNC(=O)[C@H]2CC(=O)N(C)[C@@H]2c2cccnc2)C1 [Example 181, (2S,3S)-N-(1-(((1R,2S,5R)-5-(Isopropyl(methyl)amino)-2-((S)-2-oxo-3-((6-(trifluoromethyl)quinazolin-4-yl)amino)pyrrolidin-1-yl)cyclohexyl)amino)-1,7,11-trioxo-3,14,17-trioxa-6,10-diazanonadecan-19-yl)-1-methyl-5-oxo-2-(pyridin-3-yl)pyrrolidine-3-carboxamide] | 9.1645 | 0.398 |  |  |
| CC(C)N(C)[C@@H]1CC[C@H](N2CC[C@H](Nc3ncnc4ccc(C(F)(F)F)cc34)C2=O)[C@H](NC(=O)[C@H]2CC[C@@H](NC(=O)CCOCCNC(=O)CCCCNC(=O)[C@H]3CC(=O)N(C)[C@@H]3c3cccnc3)CC2)C1 [Example 198, (2S,3S)-N-(5-((2-(3-(((1S,4s)-4-(((1R,2S,5R)-5-(Isopropyl(methyl)amino)-2-((S)-2-oxo-3-((6-(trifluoromethyl)quinazolin-4-yl)amino)pyrrolidin-1-yl)cyclohexyl)carbamoyl)cyclohexyl)amino)-3-oxopropoxy)ethyl)amino)-5-oxopentyl)-1-methyl-5-oxo-2-(pyridin-3-yl)pyrrolidine-3-carboxamide] | 9.3835 | 0.501 |  |  |

Reference: patent US12521393B2, “Cytotoxicity targeting chimeras for CCR2-expressing cells” (GLAXOSMITHKLINE INTELLECTUAL PROPERTY DEVELOPMENT LIMITED, priority 2021, dated 2026)
